Values of other authors as cited in patent US20130039858A1, “NIR MATERIALS AND NANOMATERIALS FOR THERANOSTIC APPLICATIONS” (University of Florida Research Foundation, Inc., priority 2010, published 2013).

Conditions: in H2O

Compound: CC1(C)C(/C=C/C=C/C=C/C=C2\N(CCCCS(=O)(=O)O)c3ccc4ccccc4c3C2(C)C)=[N+](CCCCS(=O)(=O)[O-])c2ccc3ccccc3c21 [ICG, indocyanine green]
- critical micelle concentration: about 0.32 mg/mL
